Measurements taken from US9328158B2, “H. pylori lipopolysaccharide outer core epitope” (National Research Council of Canada, priority 2009, dated 2016).
Values after ≈ are worked out from the molar mass of the structure shown.

These molecules were tested against 1C4F9 mAb (assay: Inhibition ELISA of 1C4F9 mAb binding to adsorbed LPS). Conditions: Concentration of the oligosaccharide or LPS required for 50% inhibition; purified 1C4F9.
Design: species or system mouse
Experimental: Studies of the specificity of the glucan-specific antibody were carried out using a series of linear oligosaccharides consisting of consecutive α1,6-linked glucose residues Glc→[α(1→6)Glc]n=1-6 and selective purified H. pylori LPS. For inhibition ELISA, serial dilutions of linear α1,6-linked glucose-containing oligosaccharides from isomalto-series [Glcα1→(6Glcα1→)n=1-6] (USBIOLOGICALS™, Swampscott, […].) or H. pylori 26695, O:3 and PJ2 LPS inhibitors were prepared and mixed with previously prepared dilutions of purified 1 C4F9 that gave an OD450=1. […] After this step, the indirect ELISA procedure was followed as described in Example 6.

Question: `OCC1OC(OCC2OC(OCC3OC(OCC4OC(OCC5OC(OCC6OC(OCC7OC(O)C(O)C(O)C7O)C(O)C(O)C6O)C(O)C(O)C5O)C(O)C(O)C4O)C(O)C(O)C3O)C(O)C(O)C2O)C(O)C(O)C1O` (centres unmarked) [Isomaltoheptaose] was tested. Which IC50 did it give?
Answer: 210 µg/mL (≈ 182 µM)

Question: Which IC50 does the source give for `OCC1OC(OCC2OC(OCC3OC(OCC4OC(OCC5OC(OCC6OC(O)C(O)C(O)C6O)C(O)C(O)C5O)C(O)C(O)C4O)C(O)C(O)C3O)C(O)C(O)C2O)C(O)C(O)C1O` (centres unmarked) [Isomaltohexaose] here?
Answer: 290 µg/mL (≈ 293 µM)

Question: How did the IC50 turn out when `OCC1OC(OCC2OC(OCC3OC(OCC4OC(OCC5OC(O)C(O)C(O)C5O)C(O)C(O)C4O)C(O)C(O)C3O)C(O)C(O)C2O)C(O)C(O)C1O` (centres unmarked) [Isomaltopentaose] was run?
Answer: 460 µg/mL (≈ 555 µM)

Question: `OCC1OC(OCC2OC(OCC3OC(OCC4OC(O)C(O)C(O)C4O)C(O)C(O)C3O)C(O)C(O)C2O)C(O)C(O)C1O` (centres unmarked) [Isomaltotetraose] was tested. Which IC50 did it give?
Answer: 1,600 μg/mL

Question: Which IC50 does the source give for `OCC1OC(OCC2OC(OCC3OC(O)C(O)C(O)C3O)C(O)C(O)C2O)C(O)C(O)C1O` (centres unmarked) [Isomaltotriose] here?
Answer: 10,000 μg/mL
